# Test results as given in US11118211B2, “Methods for the design of mechanism-based sirtuin activating compounds” (CHAKRABARTI ADVANCED TECHNOLOGY LLC, priority 2015, dated 2021).
# Where two headings read alike, the source gives them in different places.
# Legend:
# recombinant human SIRT3 = target: T1, recombinant human SIRT3 (Homo sapiens, UniProt Q9NTG7); experiment: High-throughput fluorimetric initial rate / endpoint assay of SIRT3 deacetylation with fluorolabeled p53 peptide; format: biochemical
# T1 construct: purchased Enzo Life Sciences AK 557
# T1 sequence (Q9NTG7 1-399): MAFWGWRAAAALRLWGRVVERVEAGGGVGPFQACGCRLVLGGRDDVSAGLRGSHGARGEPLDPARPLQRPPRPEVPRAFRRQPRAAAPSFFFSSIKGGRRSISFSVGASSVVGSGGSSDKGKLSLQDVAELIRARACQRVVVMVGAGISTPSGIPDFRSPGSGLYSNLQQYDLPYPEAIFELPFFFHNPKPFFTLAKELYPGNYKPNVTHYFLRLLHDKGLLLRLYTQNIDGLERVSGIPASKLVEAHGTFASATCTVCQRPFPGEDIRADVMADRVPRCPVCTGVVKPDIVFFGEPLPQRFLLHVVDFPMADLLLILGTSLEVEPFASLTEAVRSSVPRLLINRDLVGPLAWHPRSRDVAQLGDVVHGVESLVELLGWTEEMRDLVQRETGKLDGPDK
# Procedure: The specified concentration of the test compound was chosen to be 50 uM. Initial deacylation rates at DHP-1's were measured at varying [NAD+] and [NAM] according to the following methods.
# The steady state parameters (Km and kcat) and catalytic efficiency (kcat/Km) of deacetylase activity of recombinant human SIRT3 were determined using a fluorimetric assay. The deacetylation activities were measured by using the SIRT3 Fluorimetic Drug Discovery Kit (AK 557, Enzo Life Sciences). This assay system allows detection of a fluorescent signal upon deacetylation of an acetylated substrate peptide, comprising amino acids 317-320 of human p53 (Gln-Pro-Lys-LysAc) for SIRT3, when treated with developer. The intensity of fluorescence was measured on a fluorometric microplate reader (Fluoroskan AscentH FL, Thermo Lab Systems) with excitation set at 355 nm and emission detection set at 460 nm. The initial rate of the NAD^+-dependent deacetylation activity of SIRT3 enzyme was measured at different concentrations of NAD^+. The reactions were carried out at 37° C. in a 50 μl reaction volume containing 50 mM Tris/Cl (pH=8), 137 mM NaCl, and 250 uM fluorolabeled peptide substrate. Reactions carried out in the presence of DHP-1 included 5% DMSO. The raw data were fitted to the Michaelis-Menten equation and defined inhibition models by using GraphPad Prism (GraphPad Software, Inc, CA) to obtain the kinetic constants. […] In assays of allosteric modulators, artifacts reported in the presence of the fluorescent label were later shown to occur due to the hydrophobic fluorophore participating in the modulator's allosteric activation mechanism.
# This assay was used to measure the potency of modulation of SIRT3 by DHP-1 in a high-throughput endpoint format. All reagents are diluted on ice in the following reaction buffer: 50 mM Tris/Cl, pH 8.0, 137 mM NaCl, 2.7 mM KCl, 1 mM MgCl2, and 1 mg/mL BSA. Thus for each reaction well, 5U of SIRT3 enzyme is added to 500 μM NAD^+, 250 μM fluorolabeled peptide substrate, and DHP-1 at a given concentration (0-100 uM) in a total reaction volume of 50 μL. After an hour incubation at 37° C., the reaction is stopped upon addition of 1× Developer for a final reaction volume of 100 μL. The reaction is incubated at 37° C. for an additional 15 min and then read on the plate reader. Positive controls contained only enzyme, substrate, NAD^+, and DMSO while background controls contained substrate, NAD^+, and DMSO only.
# Sir2Af2 = target: T2, Sir2Af2 (Archaeoglobus fulgidus, UniProt O30124); conditions: cited from earlier work
# T2 sequence (O30124 1-253): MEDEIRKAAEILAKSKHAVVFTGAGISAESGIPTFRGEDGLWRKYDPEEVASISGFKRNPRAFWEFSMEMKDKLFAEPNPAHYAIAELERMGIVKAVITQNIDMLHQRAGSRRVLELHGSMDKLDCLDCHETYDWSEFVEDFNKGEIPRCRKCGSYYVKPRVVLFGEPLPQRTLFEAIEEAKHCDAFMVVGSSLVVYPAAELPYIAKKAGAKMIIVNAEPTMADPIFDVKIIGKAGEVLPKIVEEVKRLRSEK
# [1] = Thermodynamic solubility measurement by HPLC in HDAC buffer / DMSO; format: physicochemical; conditions: for thermodynamic solubility (in words): solubility protocol of b230; for solubility at 48 h: 24.5 °C, thermodynamic from solid, ambient (24-25° C.)
# Procedure: DHP-1 in up to 20% DMSO/HDAC was insoluble. In brief, HPLC (Agilent 1100 series) was used to perform the test. Calibration curves were established using concentration range covering the estimated solubility's. The samples were then analyzed by a well-calibrated HPLC method. The linearity was measured by R-values at least >0.99. The estimated detection limit was around 0.002 mg/mL (2 μg/mL) based on acceptable N/S ratio. Over saturated samples were prepared by dosing excess compounds into the solvent mixtures of interest. The samples were equilibrated at ambient (24-25° C.) for 48 hours and then analyzed by the same HPLC method.
# Human Sirt3 protein [2] = target: T3, Human Sirt3 protein (Homo sapiens, UniProt Q9NTG7); experiment: Label-free HPLC endpoint assay of Sirt3 deacetylation activity (DHP-1, DHP-2; FdL/p53 peptide); format: biochemical; conditions: for % product formation / % Sirt3 Activity: 50 uM DHP-1 in 5% DMSO; for % Sirt3 Activity: control = 100.0
# T3 construct: hexa-histidine (N); host or cells: E. coli Arctic Express (DE3)
# T3 sequence (Q9NTG7 102-399): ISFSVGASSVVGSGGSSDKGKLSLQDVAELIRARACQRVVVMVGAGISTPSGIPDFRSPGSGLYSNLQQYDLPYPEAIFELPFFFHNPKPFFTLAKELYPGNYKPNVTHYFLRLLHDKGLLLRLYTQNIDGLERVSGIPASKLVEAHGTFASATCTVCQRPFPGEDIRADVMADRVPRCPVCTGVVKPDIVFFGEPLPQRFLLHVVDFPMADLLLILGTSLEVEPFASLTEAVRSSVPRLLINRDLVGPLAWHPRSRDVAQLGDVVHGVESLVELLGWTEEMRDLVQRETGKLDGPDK
# Procedure: Reactions for DHP-1 used a similar protocol, but were carried out at a single concentration of modulator and varying concentrations of NAD+ and fluorolabeled peptide at 37° C. in a 50 μl reaction volume containing 50 mM Tris/Cl (pH=8), 137 mM NaCl, and 5% DMSO. [DHP] was 50 uM.
# Human Sirt3 protein [3] = target: T3, Human Sirt3 protein; experiment: Binding analysis by microscale thermophoresis (MST); conditions: 5% DMSO, 25° C.
# Procedure: Human Sirt3 protein was labeled with Alexa647 fluorophore by NHS ester chemistry in 20 mM HEPES, 200 mM NaCl, 0.5 mM TCEP at pH 7.5. A 2:1 molar excess of reactive dye was used over protein, in order to preferentially label one lysine within the protein. Free dye was removed using a size exclusion column and the labeled protein (Sirt3 NT647) was buffer exchanged into 50 mM Tris-HCl pH 8.0, 137 mM NaCl, 2.7 mM KCl, 1 mM MgCl2, 5% DMSO, 0.05% Pluronic F-127. A final concentration of 2 nM Sirt3 NT647 was titrated with varying concentrations of the modulator and thermophoresis was measured (excitation wavelength 650 nm, emission wavelength 670 nm, LED-power 15%, laser-power 80%) using a Monolith NT. 115 Pico (NanoTemper Technologies) at 25° C. in the absence and presence of various concentrations of NAD+, acetylated and de-acetylated peptide (K122-MnSOD peptide). Dissociation constants were determined with GraFit7 (Erithacus Software) by nonlinear fitting using a 1:1 binding model. Each experiment was repeated at least twice.
# [4] = 100 uM NAD + 100 uM FdL Peptide
# [5] = 200 uM NAD + 100 uM FdL Peptide
# [6] = 500 uM NAD + 250 uM FdL Peptide
# [7] = 2% DMSO in HDAC buffer, aqueous buffer, 2% DMSO/HDAC
# [8] = 5% DMSO in HDAC buffer, aqueous with cosolvent or surfactant or cyclodextrin, 5% DMSO/HDAC
compound,measurement,setting,value
"NC(=O)c1ccncc1 [isonicotinamide, reference compound]",outcome of hit identification,"recombinant human SIRT3; same sirtuin enzyme and peptide substrate, competitive inhibitor of base exchange",screened out
"NC(=O)c1cccnc1 [NAM, nicotinamide]","ΔGbind,NAM",Sir2Af2,-4.1 kcal/mol
"CCOC(=O)C1=CN(Cc2ccccc2)C=C(C(=O)OCC)C1c1ccccc1 [DHP-1, N-Benzyl-3,5-dicarbethoxy-4-phenyl-1,4-dihydropyridine]",thermodynamic solubility (in words),[1],thermodynamically insoluble
same,Solubility,[1]; up to 20% DMSO/HDAC,insoluble
same,SIRT3 activation in label-free assay,"Human Sirt3 protein [2]; 50 uM DHP-1, conditions of Table 2, threshold vapp/v=1.10",does not activate SIRT3
same,% product formation,Human Sirt3 protein [2]; [4],5.776%
same,% Sirt3 Activity,Human Sirt3 protein [2]; [4],96.7%
same,% product formation,Human Sirt3 protein [2]; [5],9.463%
same,% Sirt3 Activity,Human Sirt3 protein [2]; [5],92.3%
same,% product formation,Human Sirt3 protein [2]; [6],2.111%
same,% Sirt3 Activity,Human Sirt3 protein [2]; [6],99.5%
same,"Alpha (apparent, best-fit value)","recombinant human SIRT3; 50 uM DHP-1, global fit of mixed inhibition model, varying NAD+ and NAM",1.933
same,"Vmax (apparent, best-fit value)","recombinant human SIRT3; 50 uM DHP-1, global fit of mixed inhibition model, varying NAD+ and NAM, 250 uM fluorolabeled peptide",0.2118
same,net effect on catalytic turnover (vapp versus v),recombinant human SIRT3; fluorimetric assays,vapp>v
"O=C(O)C1=CN(Cc2ccccc2)C=C(C(=O)O)C1c1ccccc1 [DHP-2, N-Benzyl-3,5-dicarboxy-4-phenyl-1,4-dihydropyridine]",solubility at 48 h,[1]; [7],1740 µg/mL
same,solubility at 48 h,[1]; [8],2140 µg/mL
same,solubility at 48 h,"[1]; 10% DMSO in HDAC buffer, aqueous with cosolvent or surfactant or cyclodextrin, 10% DMSO/HDAC",2200 µg/mL
same,solubility at 48 h,"[1]; aqueous buffer, 100% HDAC buffer",2300 µg/mL
same,thermodynamic solubility (in words),[1],thermodynamically soluble
same,SIRT3 activation in label-free assay,"Human Sirt3 protein [2]; 3 μM NAD+ and 250 μM peptide substrate, 0-400 μM DHP-2, threshold vapp/v=1.10",does not activate SIRT3
same,"rate enhancement versus predicted for Km,NAD+ reduction (x = 0.7, 0.8, 0.9)","Human Sirt3 protein [2]; any concentration tested, label-free assay (FIG. 8 vs FIG. 10)",does not induce a rate enhancement exceeding those predicted
"C=CCc1ccc(O)c(-c2ccc(O)c(CC=C)c2)c1 [Honokiol, 5,3′-Diallyl-2,4′-dihydroxybiphenyl, reference compound]",solubility at 48 h,[1]; [7],41 µg/mL
same,solubility at 48 h,[1]; [8],120 µg/mL
same,Kd,"Human Sirt3 protein [3]; read-out: Kd, binding to SIRT3 apoenzyme",1010 ± 129 nM
same,Kd,"Human Sirt3 protein [3]; read-out: Kd, binding to the enzyme:NAD+ complex",1670 ± 125 nM
